Assay results reported in PubChem BioAssay AID248 (DTP/NCI, 2004).
“And” between values parts separate entries of the source, which are not always exact repeats. Equal values may be shown once. Inconclusive results and toxic doses are left out. Cut-off read from the data, not from the text of the source: active = T/C of 150% or more; inactive = T/C below 125%.

Tested on: L1210 leukemia ip in BDF1 mice, survival T/C
Assay: NCI In Vivo Anticancer Drug Screen. Data for tumor model L1210 Leukemia (intraperitoneal) in B6D2F1 (BDF1) mice
Settings: endpoint: mean survival time, higher = longer survival
Procedure, shortened: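 Read-out is survival time, reported as the treated-group measurement over the vehicle-control measurement.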

[1] = dose: 100.0 mg/kg/injection, schedule: Q04DX002 (ip), vehicle: Klucel (hydroxypropylcellulose) (HPC)
[2] = dose: 200.0 mg/kg/injection, schedule: Q04DX002 (ip), vehicle: Klucel (hydroxypropylcellulose) (HPC)
[3] = dose: 400.0 mg/kg/injection, schedule: Q04DX002 (ip), vehicle: Klucel (hydroxypropylcellulose) (HPC)
[4] = dose: 100.0 mg/kg/injection, schedule: Q01DX009 (ip), vehicle: Klucel (hydroxypropylcellulose) (HPC)
[5] = dose: 200.0 mg/kg/injection, schedule: Q01DX009 (ip), vehicle: Klucel (hydroxypropylcellulose) (HPC)
[6] = dose: 400.0 mg/kg/injection, schedule: Q01DX009 (ip), vehicle: Klucel (hydroxypropylcellulose) (HPC)
[7] = dose: 50.0 mg/kg/injection, schedule: Q01DX009 (ip), vehicle: Klucel (hydroxypropylcellulose) (HPC)
[8] = dose: 100.0 mg/kg/injection, schedule: Q01DX001 (ip), vehicle: saline
[9] = dose: 200.0 mg/kg/injection, schedule: Q01DX001 (ip), vehicle: saline
[10] = dose: 400.0 mg/kg/injection, schedule: Q01DX001 (ip), vehicle: saline
[11] = dose: 100.0 mg/kg/injection, schedule: Q04DX003 (ip), vehicle: Klucel (hydroxypropylcellulose) (HPC)
[12] = dose: 200.0 mg/kg/injection, schedule: Q04DX003 (ip), vehicle: Klucel (hydroxypropylcellulose) (HPC)
[13] = dose: 400.0 mg/kg/injection, schedule: Q04DX003 (ip), vehicle: Klucel (hydroxypropylcellulose) (HPC)

Measured: T/C

Cc1cccc(C(=O)N(C)C(c2ccco2)P(=O)(c2ccccc2)c2ccccc2)c1 (stereo not given)
inactive: dose: 50.0 mg/kg/injection, schedule: Q01DX001 (ip), vehicle: carboxymethylcellulose (CMC) 103 % of control | dose: 50.0 mg/kg/injection, schedule: Q01DX009 (ip), vehicle: carboxymethylcellulose (CMC) 94 % of control and 92 % of control | dose: 100.0 mg/kg/injection, schedule: Q01DX001 (ip), vehicle: carboxymethylcellulose (CMC) 104 % of control | dose: 100.0 mg/kg/injection, schedule: Q01DX009 (ip), vehicle: carboxymethylcellulose (CMC) 94 % of control and 95 % of control | dose: 200.0 mg/kg/injection, schedule: Q01DX001 (ip), vehicle: carboxymethylcellulose (CMC) 95 % of control | dose: 200.0 mg/kg/injection, schedule: Q01DX009 (ip), vehicle: carboxymethylcellulose (CMC) 89 % of control

C=C1C(=O)OC2C1CCC(C)C1CC(O)C(O)C12C (stereo not given)
inactive: dose: 12.5 mg/kg/injection, schedule: Q04DX003 (ip), vehicle: Klucel (hydroxypropylcellulose) (HPC) 96 % of control | dose: 25.0 mg/kg/injection, schedule: Q04DX003 (ip), vehicle: Klucel (hydroxypropylcellulose) (HPC) 101 % of control | dose: 50.0 mg/kg/injection, schedule: Q04DX003 (ip), vehicle: Klucel (hydroxypropylcellulose) (HPC) 101 % of control

OCC(O)C(O)C(O)/C=N\O (stereo not given)
inactive: dose: 100.0 mg/kg/injection, schedule: Q04DX003 (ip), vehicle: saline 107 % of control | dose: 200.0 mg/kg/injection, schedule: Q04DX003 (ip), vehicle: saline 107 % of control | dose: 400.0 mg/kg/injection, schedule: Q04DX003 (ip), vehicle: saline 100 % of control

COc1ccccc1NC(N)=O
inactive: dose: 100.0 mg/kg/injection, schedule: Q04DX003 (ip), vehicle: saline with Tween-80 98 % of control | dose: 200.0 mg/kg/injection, schedule: Q04DX003 (ip), vehicle: saline with Tween-80 107 % of control | dose: 400.0 mg/kg/injection, schedule: Q04DX003 (ip), vehicle: saline with Tween-80 98 % of control

c1ccc(-c2ccc(-c3ccccc3)o2)cc1
inactive: [1] 106 % of control | [2] 95 % of control | [3] 106 % of control

S=c1[nH]c2cc(Cl)ccc2s1
inactive: [1] 93 % of control | [2] 96 % of control | [3] 86 % of control

CC1=C(/C=C\C(C)=N\NC(=O)c2ccc[n+](C)c2)C(C)(C)CCC1
inactive: dose: 12.5 mg/kg/injection, schedule: Q01DX009 (ip), vehicle: saline 98 % of control | dose: 25.0 mg/kg/injection, schedule: Q01DX009 (ip), vehicle: saline 88 % of control | dose: 50.0 mg/kg/injection, schedule: Q01DX009 (ip), vehicle: saline 104 % of control and 88 % of control

CCCCC(C(C)=O)C(C)=O
inactive: [4] 100 % of control | [1] 86 % of control | [5] 100 % of control | [2] 93 % of control | [6] 89 % of control | [3] 86 % of control

O=C1OC(=O)C2C1C1(Cl)CC2(Cl)C(Cl)=C1Cl (stereo not given)
inactive: dose: 75.0 mg/kg/injection, schedule: Q01DX009 (ip), vehicle: other 101 % of control | dose: 150.0 mg/kg/injection, schedule: Q01DX009 (ip), vehicle: other 88 % of control

O=C1C=C2CCCC2CC1 (stereo not given)
inactive: dose: 75.0 mg/kg/injection, schedule: Q01DX001 (ip), vehicle: other 97 % of control | dose: 75.0 mg/kg/injection, schedule: Q04DX003 (ip), vehicle: other 93 % of control | dose: 150.0 mg/kg/injection, schedule: Q01DX001 (ip), vehicle: other 92 % of control | dose: 150.0 mg/kg/injection, schedule: Q04DX003 (ip), vehicle: other 98 % of control | dose: 300.0 mg/kg/injection, schedule: Q01DX001 (ip), vehicle: other 94 % of control | dose: 300.0 mg/kg/injection, schedule: Q04DX003 (ip), vehicle: other 92 % of control

Cc1ccc(S(=O)(=O)N2CN(S(=O)(=O)c3ccc(C)cc3)CN(S(=O)(=O)c3ccc(C)cc3)C2)cc1
inactive: dose: 100.0 mg/kg/injection, schedule: Q04DX002 (ip), vehicle: saline with Tween-80 94 % of control | dose: 200.0 mg/kg/injection, schedule: Q04DX002 (ip), vehicle: saline with Tween-80 91 % of control | dose: 400.0 mg/kg/injection, schedule: Q04DX002 (ip), vehicle: saline with Tween-80 91 % of control

CC(C)=CCC(C#N)(CCN1CCCC1)c1cccc2ccccc12 (stereo not given)
inactive: dose: 12.5 mg/kg/injection, schedule: Q01DX009 (ip), vehicle: Klucel (hydroxypropylcellulose) (HPC) 100 % of control | dose: 25.0 mg/kg/injection, schedule: Q01DX009 (ip), vehicle: Klucel (hydroxypropylcellulose) (HPC) 118 % of control | [7] 105 % of control

CC(=O)NC1C(O)OC(COC(c2ccccc2)(c2ccccc2)c2ccccc2)C(O)C1O (stereo not given)
inactive: [8] 91 % of control | [9] 93 % of control | [10] 104 % of control

CCOC(=O)C(=O)Nc1onc(C)c1[N+](=O)[O-]
inactive: dose: 100.0 mg/kg/injection, schedule: Q01DX001 (ip), vehicle: Klucel (hydroxypropylcellulose) (HPC) 91 % of control | [4] 93 % of control | dose: 200.0 mg/kg/injection, schedule: Q01DX001 (ip), vehicle: Klucel (hydroxypropylcellulose) (HPC) 97 % of control | [5] 93 % of control | dose: 400.0 mg/kg/injection, schedule: Q01DX001 (ip), vehicle: Klucel (hydroxypropylcellulose) (HPC) 100 % of control

CC(=O)c1ccc(OS(=O)(=O)c2ccc([N+](=O)[O-])cc2)cc1
inactive: [4] 90 % of control | [11] 94 % of control | [5] 90 % of control | [12] 94 % of control | [6] 86 % of control | [13] 89 % of control

CC1(OC(=O)c2ccccc2)C2C=CC1C1C(=O)NC12 (stereo not given)
inactive: [4] 87 % of control | [11] 106 % of control | [5] 102 % of control | [12] 102 % of control | [6] 104 % of control | [13] 96 % of control

CS(=O)(=O)OCC1CCCCC1COS(C)(=O)=O (stereo not given)
inactive: [4] 107 % of control | [5] 104 % of control | [6] 93 % of control

Clc1nc(Br)[nH]c1Cl
inactive: dose: 1.56 mg/kg/injection, schedule: Q01DX009 (ip), vehicle: Klucel (hydroxypropylcellulose) (HPC) 100 % of control | dose: 3.12 mg/kg/injection, schedule: Q01DX009 (ip), vehicle: Klucel (hydroxypropylcellulose) (HPC) 107 % of control | dose: 6.25 mg/kg/injection, schedule: Q01DX009 (ip), vehicle: Klucel (hydroxypropylcellulose) (HPC) 100 % of control and 113 % of control

O=C1OC(c2ccccc2)=N/C1=C1\OC(=O)c2ccccc21
inactive: [7] 92 % of control | [4] 86 % of control | [5] 92 % of control | [6] 89 % of control

CC(C)CSC(SCC(C)C)C(O)C(O)C(O)CO (stereo not given)
inactive: dose: 75.0 mg/kg/injection, schedule: Q01DX001 (ip), vehicle: carboxymethylcellulose (CMC) 98 % of control | dose: 150.0 mg/kg/injection, schedule: Q01DX001 (ip), vehicle: carboxymethylcellulose (CMC) 109 % of control | dose: 300.0 mg/kg/injection, schedule: Q01DX001 (ip), vehicle: carboxymethylcellulose (CMC) 97 % of control

O=c1[nH]cnc2c1ncn2C1OCC(O)C(O)C1O (stereo not given)
inactive: dose: 50.0 mg/kg/injection, schedule: Q01DX001 (ip), vehicle: saline 105 % of control | [8] 101 % of control and 105 % of control | [9] 119 % of control and 109 % of control | [10] 103 % of control

O=C1NC(=O)C(c2cc(Cl)co2)N1 (stereo not given)
inactive: [11] 105 % of control | [12] 108 % of control | [13] 101 % of control

NC1C2C3C=CC(C(C(=O)O)C3C(=O)O)C12 (stereo not given)
inactive: [11] 98 % of control | [12] 102 % of control | [13] 101 % of control

NC(N)=N/N=C(\CBr)c1ccc([N+](=O)[O-])cc1
inactive: dose: 15.0 mg/kg/injection, schedule: Q01DX Z (ip), vehicle: carboxymethylcellulose (CMC) 97 % of control | dose: 30.0 mg/kg/injection, schedule: Q01DX Z (ip), vehicle: carboxymethylcellulose (CMC) 92 % of control | dose: 30.0 mg/kg/injection, schedule: Q01DX Z (oral), vehicle: carboxymethylcellulose (CMC) 100 % of control | dose: 60.0 mg/kg/injection, schedule: Q01DX Z (ip), vehicle: carboxymethylcellulose (CMC) 98 % of control and 91 % of control | dose: 60.0 mg/kg/injection, schedule: Q01DX Z (oral), vehicle: carboxymethylcellulose (CMC) 103 % of control | dose: 120.0 mg/kg/injection, schedule: Q01DX Z (ip), vehicle: carboxymethylcellulose (CMC) 92 % of control | dose: 120.0 mg/kg/injection, schedule: Q01DX Z (oral), vehicle: carboxymethylcellulose (CMC) 102 % of control | dose: 240.0 mg/kg/injection, schedule: Q01DX Z (oral), vehicle: carboxymethylcellulose (CMC) 92 % of control
